The source of these data is US9029389B2 (Institut Pasteur Korea, priority 2011, dated 2015).

The term inhibition denotes the drop in the measured response relative to a control, in per cent. High values mean strong suppression, low ones little suppression. For orientation: melting point means the temperature of the solid-liquid transition. By IC50 is commonly meant the midpoint of a concentration-inhibition curve.

The target in data set [1] is T1, Human 5-lipoxygenase (Homo sapiens, UniProt P09917).
T1 construct: purchased Cayman 60402; host or cells: insect cells
T1 sequence (P09917 1-674): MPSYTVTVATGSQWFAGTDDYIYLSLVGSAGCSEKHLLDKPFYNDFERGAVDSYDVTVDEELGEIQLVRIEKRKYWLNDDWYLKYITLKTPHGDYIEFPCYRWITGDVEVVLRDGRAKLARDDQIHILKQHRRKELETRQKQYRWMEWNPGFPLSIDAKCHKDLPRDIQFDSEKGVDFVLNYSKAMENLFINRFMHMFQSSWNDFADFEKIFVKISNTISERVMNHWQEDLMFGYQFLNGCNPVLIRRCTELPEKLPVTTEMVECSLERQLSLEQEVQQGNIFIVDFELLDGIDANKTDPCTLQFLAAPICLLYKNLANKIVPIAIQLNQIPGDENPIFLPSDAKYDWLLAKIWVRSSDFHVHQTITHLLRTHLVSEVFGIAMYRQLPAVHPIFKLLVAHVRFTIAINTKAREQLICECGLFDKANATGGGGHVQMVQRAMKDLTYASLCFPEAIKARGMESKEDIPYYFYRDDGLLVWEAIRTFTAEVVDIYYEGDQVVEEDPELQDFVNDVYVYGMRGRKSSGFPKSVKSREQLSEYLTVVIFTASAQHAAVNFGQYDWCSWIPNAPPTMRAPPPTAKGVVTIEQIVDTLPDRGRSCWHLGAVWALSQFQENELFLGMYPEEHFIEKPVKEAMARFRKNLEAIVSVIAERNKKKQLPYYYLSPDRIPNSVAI
The data set is described as follows: Activity of compounds against 5-LO enzyme (LTB4 measurement and/or fluorescence method). It counts as biochemical. As to conditions: for inhibition at 10 µM: 5-LO, single concentration of 10 uM in duplicate; for IC50: 6 or 11 point dose response in duplicate. The method, boiled down: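 Two read-outs: LTB4 measured by EIA and/or LC/MS/MS with LTB4-d4 standard after 15 min RT compound preincubation with insect-cell 5-LO and a 5 min 37 °C reaction on 3 uM arachidonic acid (0.1 mM ATP, pH 7.4). The room-temperature fluorescence format used 20 uM H2DCFDA, 100 uM ATP, 3 uM arachidonic acid, 5 min; IC50 from 6/11-point curves.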

Take `CCc1nc2ccc(Cl)cn2c1C(=O)NCc1ccc(CC2CCOCC2)cc1` [compound 358, 6-chloro-2-ethyl-N-(4-((tetrahydro-2H-pyran-4-yl)methyl)benzyl)imidazo[1,2-a]pyridine-3-carboxamide]: the melting point is 132.2 to 133 °C. The inhibition at 10 µM in data set [1] was below 40%.
`CCc1nc2ccc(Cl)cn2c1C(=O)NCc1ccc(C#N)cc1` [compound 134, 6-Chloro-N-(4-cyanobenzyl)-2-ethylimidazo[1,2-a]pyridine-3-carboxamide]: the melting point was in the range of 223 to 224 °C. The compound also displayed an inhibition at 10 µM in data set [1] below 40%.
As to `CCc1nc2cc(Cl)ccn2c1C(=O)NCc1ccc(Oc2ccc(OC(F)(F)F)cc2)cc1` [compound 128, 7-Chloro-2-ethyl-N-(4-(4-(trifluoromethoxy)phenoxy)benzyl)imidazo[1,2-a]pyridine-3-carboxamide], the melting point fell in the range of 141 to 142 °C. In addition, in data set [1], the inhibition at 10 µM is above 69% and the IC50 is below 1 µM.
Compound `CCc1nc2c(F)cccn2c1C(=O)NCc1ccc(N2CCOCC2)cc1` [compound 242, 2-Ethyl-8-fluoro-N-(4-morpholinobenzyl)imidazo[1,2-a]pyridine-3-carboxamide] gave a melting point of 197.3 °C. Besides, the inhibition at 10 µM in data set [1] is below 40%.
For `CCc1nc2c(F)cccn2c1C(=O)NCc1ccc(N2CCC(c3ccc(OC(F)(F)F)cc3)CC2)cc1` [compound 373, 2-ethyl-8-fluoro-N-(4-(4-(4-(trifluoromethoxy)phenyl)piperidin-1-yl)benzyl)imidazo[1,2-a]pyridine-3-carboxamide], in that order: > 177.7 °C (dec.) and 40 to 69%.
The compound `CCc1nc2cc(Cl)ccn2c1C(=O)NCc1ccc(NCc2ccc(OC(F)(F)F)cc2)cc1` [compound 215, 7-Chloro-2-ethyl-N-(4-((4-(trifluoromethoxy)benzyl)amino)benzyl)imidazo[1,2-a]pyridine-3-carboxamide] came in with a melting point of 169.6 °C. Moreover, the inhibition at 10 µM in data set [1] is 40 to 69%.
`CCc1nc2ccc(Cl)cn2c1COc1ccc(N2CCN(c3ccc(F)cc3)CC2)cc1` [compound 399, 6-chloro-2-ethyl-3-((4-(4-(4-fluorophenyl)piperazin-1-yl)phenoxy)methyl)imidazo[1,2-a]pyridine]: the melting point came out at 161.3 °C. The IC50 in data set [1] was below 1 µM.
With `CCc1nc2ccccn2c1C(=O)NCc1ccc(OCc2ccc(OC(F)(F)F)cc2)cc1` [compound 207, 2-Ethyl-N-(4-(4-(trifluoromethoxy)benzyloxy)benzyl)imidazo[1,2-a]pyridine-3-carboxamide], the melting point turned out to be 138.7 °C. In data set [1], this compound yielded an inhibition at 10 µM above 69% and an IC50 of 1 to 20 µM.
`CCc1nc2cc(Cl)ccn2c1C(=O)NCc1ccc(OCc2ccc(F)cc2)cc1` [compound 173, 7-Chloro-2-ethyl-N-(4-(4-fluorobenzyloxy)benzyl)imidazo[1,2-a]pyridine-3-carboxamide] had an inhibition at 10 µM in data set [1] of 40 to 69%.
In the case of `CCc1nc2ccc(C)cn2c1C(=O)NCc1ccc(Oc2ccccc2)cc1` [compound 58, 2-Ethyl-6-methyl-N-(4-phenoxybenzyl)imidazo[1,2-a]pyridine-3-carboxamide], in data set [1], the inhibition at 10 µM was above 69% and the IC50 was in the range of 1 to 20 µM.
As to `Cc1nc2ccccn2c1C(=O)NCCOc1ccccc1` [compound 28, 2-Methyl-N-(2-phenoxyethyl)imidazo[1,2-a]pyridine-3-carboxamide], in data set [1], the inhibition at 10 µM was below 40%.
The same measure, in the same setting: the figure for `CCc1nc2ccc(Cl)cn2c1C(=O)NCc1ccc(N2CCC(C(=O)Cc3ccc(F)cc3)CC2)cc1` [compound 325, 6-chloro-2-ethyl-N-(4-(4-(2-(4-fluorophenyl)acetyl)piperidin-1-yl)benzyl)imidazo[1,2-a]pyridine-3-carboxamide] is below 40%.
In data set [1], `CCc1nc2cc(N3CCN(c4ccc(F)cc4)CC3)ccn2c1C(=O)NCc1ccc(N2CCOCC2)cc1` [compound 256, 2-Ethyl-7-(4-(4-fluorophenyl)piperazin-1-yl)-N-(4-morpholinobenzyl)imidazo[1,2-a]pyridine-3-carboxamide] came in with an inhibition at 10 µM below 40%.
Still for that read-out and setting: the figure for `Cc1nc2ccc(F)cn2c1C(=O)NCc1ccccc1` [compound 40, N-Benzyl-6-fluoro-2-methylimidazo[1,2-a]pyridine-3-carboxamide] is below 40%.
`CCc1nc2ccc(Cl)cn2c1C(=O)NCc1ccc(N2CCOCC2)cc1` [compound 64] returned an inhibition at 10 µM in data set [1] below 40%.
Same read-out and setting: the figure for `CCc1nc2cc(Cl)ccn2c1C(=O)NCc1ccc(N2CCC(=O)CC2)cc1` [compound 200, 7-Chloro-2-ethyl-N-(4-(4-oxopiperidin-1-yl)benzyl)imidazo[1,2-a]pyridine-3-carboxamide] is 40 to 69%.
`CCc1nc2cc(Cl)ccn2c1C(=O)N1CCC(Oc2ccc(OC(F)(F)F)cc2)CC1` [compound 380, (7-Chloro-2-ethylimidazo[1,2-a]pyridin-3-yl)(4-(4-(trifluoromethoxy)phenoxy)piperidin-1-yl)methanone] displayed an IC50 in data set [1] below 1 µM.
With `CCc1nc2cc(Cl)ccn2c1C(=O)NCc1ccc(-c2ccc(Cl)cc2C(F)(F)F)cc1` [compound 103, 7-Chloro-N-((4′-chloro-2′-(trifluoromethyl)biphenyl-4-yl)methyl)-2-ethylimidazo[1,2-a]pyridine-3-carboxamide], in data set [1], the inhibition at 10 µM is above 69% and the IC50 was in the range of 1 to 20 µM.
Take `CCc1nc2cc(C)ccn2c1C(=O)NCc1ccc(OC(F)(F)F)cc1` [compound 280, 2-Ethyl-7-methyl-N-(4-(trifluoromethoxy)benzyl)imidazo[1,2-a]pyridine-3-carboxamide]: the inhibition at 10 µM in data set [1] was below 40%.
Turning to `CCc1nc2cc(Cl)ccn2c1C(=O)NCc1ccc(N2CCC(C)CC2)cc1` [compound 195, 7-Chloro-2-ethyl-N-(4-(4-methylpiperidin-1-yl)benzyl)imidazo[1,2-a]pyridine-3-carboxamide], in data set [1], the inhibition at 10 µM fell in the range of 40 to 69%.
The same measure, in the same setting: the figure for `CCc1nc2ccc(Cl)cn2c1CNCCc1ccncc1` [compound 344, N-((6-chloro-2-ethylimidazo[1,2-a]pyridin-3-yl)methyl)-2-(pyridin-4-yl)ethanamine] is below 40%; for `CCc1nc2cc(Cl)ccn2c1C(=O)NCc1ccc(N2CCC(C(=O)O)CC2)cc1` [compound 275, 1-(4-((7-Chloro-2-ethylimidazo[1,2-a]pyridine-3-carboxamido)methyl)phenyl)piperidine-4-carboxylic acid] it is below 40%; for `CCc1nc2cc(Cl)ccn2c1C(=O)OCc1ccc(Oc2ccc(F)cc2)cc1` [compound 203] it is below 40%.
The same measure, in the same setting: the figure for `CCc1nc2ccc(Cl)cn2c1CNCc1ccc(N2CCC(O)CC2)cc1` [compound 340, 1-(4-((((6-chloro-2-ethylimidazo[1,2-a]pyridin-3-yl)methyl)amino)methyl)phenyl)piperidin-4-ol] is below 40%; for `CCc1nc2ccccn2c1C(=O)NCc1ccc(C(C)(C)C)cc1` [compound 49, N-(4-tert-Butylbenzyl)-2-ethylimidazo[1,2-a]pyridine-3-carboxamide] it is below 40%.
Still for that read-out and setting: the figure for `CCc1nc2cc(Cl)ccn2c1C(=O)NCc1ccc(N2CCCCC2)cc1` [compound 89, 7-Chloro-2-ethyl-N-(4-(piperidin-1-yl)benzyl)imidazo[1,2-a]pyridine-3-carboxamide] is below 40%.
The compound `CCc1nc2ccc(Cl)cn2c1C(=O)NCc1ccc(OCc2ccc(OC(F)(F)F)cc2)cc1` [compound 170] had an inhibition at 10 µM in data set [1] below 40%.
Take `Cc1nc2ccccn2c1C(=O)NCC1CCNCC1` [compound 24, 2-Methyl-N-(piperidin-4-ylmethyl)imidazo[1,2-a]pyridine-3-carboxamide]: the inhibition at 10 µM in data set [1] was below 40%.
In turn, `CCc1nc2cc(Cl)ccn2c1C(=O)NCc1ccn(-c2ccc(C(F)(F)F)cc2)n1` [compound 152, 7-Chloro-2-ethyl-N-((1-(4-(trifluoromethyl)phenyl)-1H-pyrazol-3-yl)methyl)imidazo[1,2-a]pyridine-3-carboxamide] showed an inhibition at 10 µM in data set [1] of 40 to 69%.
Still for that read-out and setting: the figure for `CCc1nc2ccc(Cl)cn2c1CNCc1ccc(F)cc1` [compound 338, 1-(6-chloro-2-ethylimidazo[1,2-a]pyridin-3-yl)-N-(4-fluorobenzyl)methanamine] is below 40%; for `CCc1nc2ccc(OC)cn2c1C(=O)NCc1ccc(N2CCOCC2)cc1` [compound 272] it is below 40%; for `Cc1nc2ccccn2c1C(=O)Nc1ccncc1` [compound 11, 2-Methyl-N-(pyridin-4-yl)imidazo[1,2-a]pyridine-3-carboxamide] it is below 40%.
